The text below walks through data of patent US5330897A, “Sialic acid binding lectin of protozoan origin” (South Alabama Medical Science Foundation, priority 1992, dated 1994).

One experiment deals with T. mobilensis lectin. The experiment in a line: Inhibition of T. mobilensis lectin-mediated hemagglutination. The format is biochemical, Tritrichomonas mobilensis. The settings on record: for Minimal Inhibitory Conc.: 2 units of hemagglutinin; for Inhibition of HA activity of purified lectin (in words): concentrations up to 100 mM where stated.
Experiment [1] has as its system sialidase from T. mobilensis. Kind of experiment: Inhibition of sialidase activity associated with the affinity column. It is filed as biochemical, Tritrichomonas mobilensis. The settings on record: 1 mM inhibitor. As to the method: Free sialic acid release from bovine submaxillary mucin was used to determine enzymatic activity. Sample to be tested (total volume 50 μl) was mixed with 250 μl of 0.1M acetate, pH 5.0 and 200 μl of 1% mucin in water. After incubation at 37° for 30 minutes, 0.5 ml of 5% phosphotungstic acid in 2.5N HCl was added with vortexing. Assay tubes were centrifuged at 2000×g for 10 minutes, and 250 μl of the supernatant was assayed for sialic acid by the thiobarbituric acid method (Warren, J. Biol. Chem. 234:1971-1975 (1959)). Activity was calculated as μmoles of sialic acid released during a 30 min incubation at 37°. Controls were identical samples precipitated by phosphotungstic acid before the 37° incubation.
The sialidase(s) from T. mobilensis can be separated from HA activity by carefully controlling elution conditions from the affinity column. […] Affinity purified lectin is not inhibited at inhibitor concentrations up to 100 mM, while the sialidase activity associated with the column is inhibited by 50% at 1 mM inhibitor. […] Alternatively, they may simply reflect the affinity of the sialidase for mucin.

The test system of experiment [2] is T. mobilensis hemolysis of erythrocytes. Kind of experiment: Whole organism hemolysis assay, inhibition. The format is cell-based, Tritrichomonas mobilensis. An excerpt:
Tritrichomonas mobilensis, an enteric parasite of squirrel monkeys, adheres readily to isolated monkey intestinal epithelial cells and agglutinates human erythrocytes in vitro. These activities are mediated by a sialic acid binding lectin. Hemagglutination by either parasites or purified lectin is inhibited by N-acetylneuraminic acid and anti-lectin monoclonal antibody (MAB), but not by 2,3-dehydro-2-desoxy-N-acetylneuraminic acid, a neuraminidase inhibitor. T. mobilensis hemolyzes erythrocytes in a modification of a previously published whole organism hemolysis assay. Hemolysis is inhibited by N-acetylneuraminic acid, 2,3-dehydro-2-desoxy-N-acetylneuraminic acid, anti-lectin MAB, T. mobilensis lectin and other sialic acid binding lectins, fetuin, and colominic acid, but not by asialofetuin, or leupeptin. Desialated erythrocytes are neither agglutinated nor hemolyzed.

Experiment [3] deals with T. mobilensis cell-free lysate hemagglutinin. Kind of experiment: Inhibition of HA activity of T. mobilensis cell-free lysate. It is filed as biochemical, Tritrichomonas mobilensis.
The subject of experiment [4] is T. foetus cell-free lysate hemagglutinin. Kind of experiment: Inhibition of HA activity of T. foetus cell-free lysate. It is filed as biochemical, Tritrichomonas foetus.
The subject of experiment [5] is T. augusta cell-free lysate hemagglutinin. Kind of experiment: Inhibition of HA activity of T. augusta cell-free lysate. It is filed as biochemical, Tritrichomonas augusta.
The next experiment has as its system live T. mobilensis. Kind of experiment: Slide agglutination of live T. mobilensis by lectins. The format is cell-based, Tritrichomonas mobilensis. The settings on record: carbohydrate 100 mM. As to the method: Agglutination of live T. mobilensis with lectins with various carbohydrate binding specificities was performed by a slide agglutination assay. Lectin Kit LK-2000 (Vector Laboratories) consisted of the following lectins: concanavalin A (ConA), wheat germ agglutinin (WGA), soybean agglutinin (SBA), gorse seed agglutinin (UEA-1), castor bean agglutinin type 1 (RCA-1), peanut agglutinin (PNA), and horse gram agglutinin (DBA). Limulus polyphemus lectin (LPA) was obtained from Sigma, and Limax flavus (LFA) agglutinin from EY Labs. Lectins and specific carbohydrates were dissolved in buffers recommended by the manufacturers. Twenty five μl of washed T. mobilensis (about 2×10^7 /ml) were placed onto a glass slide. An equal volume of lectin (200 μg/ml) or lectin with specific carbohydrate (final concentration, 100 mM) was added. After mixing for 2 to 3 min, the agglutination was evaluated under a microscope.

For experiment [6], the system named is T. mobilensis attachment to CHO cells. The experiment in a line: Carbohydrate inhibition of T. mobilensis adherence to CHO cells. The format is cell-based, Tritrichomonas mobilensis. The conditions noted are these: concentration-dependent; other carbohydrates up to 100 mM. As to the method:
The kinetics of T. mobilensis-CHO trypsin-dispersed cell interactions were studied in a cell suspension system. Equal volumes (100 μl) of 10^5 CHO cells and 10^6 (unless otherwise specified) trichomonads resuspended in serum-free M199 were mixed in microfuge tubes and incubated at room temperature (unless otherwise stated) with gentle agitation. Periodically the percentage of CHO cells with adherent flagellates was determined microscopically in wet-mount preparations, 100 CHO cells being examined in each preparation.

Experiment [7] deals with live T. mobilensis flagellates. Kind of experiment: Inhibition of hemagglutination by live T. mobilensis. The settings on record: sugars up to 100 mM; normal erythrocytes, room temperature.
The next experiment relates to live cells of T. foetus. Kind of experiment: Inhibition of HA by live cells of T. foetus. It is filed as cell-based, Tritrichomonas foetus.

Take `CC(=O)N[C@H]1[C@H]([C@H](O)[C@H](O)CO)OC(C(=O)O)=C[C@@H]1O` [2,3-dehydro-2-deoxy-N-acetylneuraminic acid]: the “Minimal Inhibitory Conc.” value in the experiment with T. mobilensis lectin (carbohydrates) is more than 100 mM. Moreover, the “Inhibition of HA activity of purified lectin (in words)” value with T. mobilensis lectin is listed as “not inhibited”. In addition, the “Inhibition of sialidase activity” value in experiment [1] is given as 50%. The Inhibition of hemolysis entry in [2] was “inhibited”.
In the case of `CC(=O)N[C@H]1C(O)O[C@H](CO)[C@@H](O)[C@@H]1O` (stereo partly shown) [N-acetylglucosamine], in experiment [3] (carbohydrates, […]), the “Conc. required to inhibit 2 HA units, T. mobilensis” value was more than 200 µg/mL. The “Conc. required to inhibit 2 HA units, T. foetus” value in [4] (carbohydrates, […]) was more than 200 µg/mL. Moreover, in experiment [5] (carbohydrates, […]), the “Conc. required to inhibit 2 HA units, T. augusta” value was more than 200 µg/mL. Moreover, the “Minimal Inhibitory Conc.” value in the experiment on T. mobilensis lectin (carbohydrates) is recorded as more than 100 mM. Moreover, the “Effect of specific carbohydrate on agglutinating activity of the appropriate lectin” value in the experiment with live T. mobilensis was “abolished agglutinating activity”.
With `CC(=O)N[C@H]1[C@H]([C@H](O)[C@H](O)CO)OC(O)(C(=O)O)C[C@@H]1O` (stereo partly shown) [N-acetylneuraminic acid], the “Conc. required to inhibit 2 HA units, T. mobilensis” value in experiment [3] (carbohydrates, […]) worked out at 5 µg/mL. In addition, the “Conc. required to inhibit 2 HA units, T. foetus” value in [4] (carbohydrates, […]) was more than 200 µg/mL. The “Conc. required to inhibit 2 HA units, T. augusta” value in [5] (carbohydrates, […]) was 10 µg/mL. The “Minimal Inhibitory Conc.” value in the experiment on T. mobilensis lectin (carbohydrates) is recorded as 2.0 mM. The “Inhibition of HA activity of purified lectin (in words)” value in the experiment with T. mobilensis lectin was “inhibited”. The Inhibition of hemolysis entry in experiment [2] was “inhibited”. Further, the “Inhibition of attachment of parasites to CHO cells” value in experiment [6] was “inhibited”. For the same molecule, in experiment [7], the “Inhibition of hemagglutination by live T. mobilensis” value (shortened to “Inhibition of hemagglutination”) is reported as “inhibited”.
Regarding `O=C(CO)N[C@H]1[C@H]([C@H](O)[C@H](O)CO)OC(O)(C(=O)O)C[C@@H]1O` (stereo partly shown) [N-glycolylneuraminic acid], in the experiment on T. mobilensis lectin (carbohydrates), the “Minimal Inhibitory Conc.” value came to 8.3 mM. For the same molecule, the “Inhibition of hemagglutination” value in [7] is given as “inhibited”.
Regarding “N-acetylneuraminic acid-lactose [sialyllactose]”, the “Inhibition of attachment of parasites to CHO cells” value in [6] is “inhibited”. The “Inhibition of hemagglutination” value in experiment [7] is “inhibited”.
colominic acid: in experiment [2], the Inhibition of hemolysis result is on record as “inhibited”.

B1: Fetuin: sialoconjugate (sialoglycoprotein) (protein, UniProt P12763 19-359, looked up)
Alpha-2-HS-glycoprotein: IPLDPVAGYKEPACDDPDTEQAALAAVDYINKHLPRGYKHTLNQIDSVKVWPRRPTGEVYDIEIDTLETTCHVLDPTPLANCSVRQQTQHAVEGDCDIHVLKQDGQFSVLFTKCDSSPDSAEDVRKLCPDCPLLAPLNDSRVVHAVEVALATFNAESNGSYLQLVEISRAQFVPLPVSVSVEFAVAATDCIAKEVVDPTKCNLLAEKQYGFCKGSVIQKALGGEDVRVTCTLFQTQPVIPQPQPDGAEAEAPSAVPDAAGPTPSAAGPPVASVVVGPSVVAVPLPLHRAHYDLRHTFSGVASVESSSGEAFHVGKTPIVGQPSIPGGPVRLCPGRIRYFKI
For the molecule B1, the “Conc. required to inhibit 2 HA units, T. mobilensis” value in experiment [3] (sialoglycoproteins) amounted to 100 µg/mL. For the same molecule, the “Conc. required to inhibit 2 HA units, T. foetus” value in [4] (sialoglycoproteins) was determined as 60 µg/mL. For the same molecule, the “Conc. required to inhibit 2 HA units, T. augusta” value in experiment [5] (sialoglycoproteins) is 100 µg/mL. In addition, in the experiment on live cells of T. foetus, the “Conc. required to Inhibit 2 HA Units” value came to 60 µg/mL. The “Minimal Inhibitory Conc.” value with T. mobilensis lectin (glycoproteins or proteins) is 8.33 µg/mL. Besides, in experiment [2], the Inhibition of hemolysis result is recorded as “inhibited”.
